# Measurements published in ChEMBL document CHEMBL3885881, “DrugMatrix”.
# Species on record: Rattus norvegicus
# Test: DrugMatrix - Regimen: Daily Repeat
# Type: toxicity, organism-based, Sprague-Dawley
# Design: regimen Daily Repeat, gender Male, age 6-8 weeks
# Settings: in vivo, ip, 1 mg/kg, route intraperitoneal, dose level High, vehicle 100 % SALINE; for ABSOLUTE BASOPHIL / ABSOLUTE EOSINOPHIL / ABSOLUTE LYMPHOCYTE / ABSOLUTE MONOCYTE / ABSOLUTE SEGMENTED NEUTROPHIL / BASOPHIL / EOSINOPHIL / ERYTHROCYTE COUNT / HEMATOCRIT / HEMOGLOBIN / LEUKOCYTE COUNT / LYMPHOCYTE / MEAN CORPUSCULAR HEMOGLOBIN / MEAN CORPUSCULAR HEMOGLOBIN CONCENTRATION / MEAN CORPUSCULAR VOLUME / MONOCYTE / NEUTROPHIL / NUCLEATED RED BLOOD CELLS / PLATELET COUNT: tissue Blood; for ALANINE AMINOTRANSFERASE / ALKALINE PHOSPHATASE / ASPARTATE AMINOTRANSFERASE / BLOOD UREA NITROGEN / CARBON DIOXIDE / CHLORIDE / CHOLESTEROL / CREATININE / GLUCOSE / LACTATE DEHYDROGENASE / LIPASE / PHOSPHORUS / POTASSIUM / SODIUM / TOTAL BILIRUBIN / TOTAL PROTEIN / URIC ACID: tissue Plasma
compound,measurement,setting,value
CC[C@H]1CN2CCc3cc(OC)c(OC)cc3[C@@H]2C[C@@H]1C[C@H]1NCCc2cc(OC)c(OC)cc21 [EMETINE],ABSOLUTE BASOPHIL,"72 h, time 3 day",0 CELLS/uL
same,ABSOLUTE EOSINOPHIL,"72 h, time 3 day",235.33 CELLS/uL
same,ABSOLUTE LYMPHOCYTE,"72 h, time 3 day",9173.33 CELLS/uL
same,ABSOLUTE MONOCYTE,"72 h, time 3 day",141.33 CELLS/uL
same,ABSOLUTE SEGMENTED NEUTROPHIL,"72 h, time 3 day",916.67 CELLS/uL
same,BASOPHIL,"72 h, time 3 day",0%
same,EOSINOPHIL,"72 h, time 3 day",2.33%
same,ERYTHROCYTE COUNT,"72 h, time 3 day",6.53 x10E6/uL
same,HEMATOCRIT,"72 h, time 3 day",38.67%
same,HEMOGLOBIN,"72 h, time 3 day",13.97 G/DL
same,LEUKOCYTE COUNT,"72 h, time 3 day",10.47 x10E3/uL
same,LYMPHOCYTE,"72 h, time 3 day",88%
same,MEAN CORPUSCULAR HEMOGLOBIN,"72 h, time 3 day",21.37 pg
same,MEAN CORPUSCULAR HEMOGLOBIN CONCENTRATION,"72 h, time 3 day",36.1 G/DL
same,MEAN CORPUSCULAR VOLUME,"72 h, time 3 day",59.2 fL
same,MONOCYTE,"72 h, time 3 day",1.33%
same,NEUTROPHIL,"72 h, time 3 day",8.33%
same,NUCLEATED RED BLOOD CELLS,"72 h, time 3 day",0 /100WBC
same,PLATELET COUNT,"72 h, time 3 day",1026.33 x10E3/uL
same,ALANINE AMINOTRANSFERASE,"72 h, time 3 day",66.33 u/L
same,ALKALINE PHOSPHATASE,"72 h, time 3 day",365 u/L
same,ASPARTATE AMINOTRANSFERASE,"72 h, time 3 day",82.33 u/L
same,BLOOD UREA NITROGEN,"72 h, time 3 day",17.67 mg/dL
same,CARBON DIOXIDE,"72 h, time 3 day",34.67 mmol/L
same,CHLORIDE,"72 h, time 3 day",100.33 MEQ/L
same,CHOLESTEROL,"72 h, time 3 day",63 mg/dL
same,CREATININE,"72 h, time 3 day",0.22 mg/dL
same,GLUCOSE,"72 h, time 3 day",180.33 mg/dL
same,LACTATE DEHYDROGENASE,"72 h, time 3 day",120.33 u/L
same,LIPASE,"72 h, time 3 day",9 u/L
same,PHOSPHORUS,"72 h, time 3 day",11.83 mg/dL
same,POTASSIUM,"72 h, time 3 day",6.48 MEQ/L
same,SODIUM,"72 h, time 3 day",146.33 MEQ/L
same,TOTAL BILIRUBIN,"72 h, time 3 day",0.2 mg/dL
same,TOTAL PROTEIN,"72 h, time 3 day",6.27 G/DL
same,URIC ACID,"72 h, time 3 day",1.73 mg/dL
same,ABSOLUTE BASOPHIL,"120 h, time 5 day",0 CELLS/uL
same,ABSOLUTE EOSINOPHIL,"120 h, time 5 day",107.33 CELLS/uL
same,ABSOLUTE LYMPHOCYTE,"120 h, time 5 day",9674.67 CELLS/uL
same,ABSOLUTE MONOCYTE,"120 h, time 5 day",240.33 CELLS/uL
same,ABSOLUTE SEGMENTED NEUTROPHIL,"120 h, time 5 day",1811 CELLS/uL
same,BASOPHIL,"120 h, time 5 day",0%
same,EOSINOPHIL,"120 h, time 5 day",1%
same,ERYTHROCYTE COUNT,"120 h, time 5 day",6.23 x10E6/uL
same,HEMATOCRIT,"120 h, time 5 day",37.3%
same,HEMOGLOBIN,"120 h, time 5 day",13.67 G/DL
same,LEUKOCYTE COUNT,"120 h, time 5 day",11.83 x10E3/uL
same,LYMPHOCYTE,"120 h, time 5 day",82.67%
same,MEAN CORPUSCULAR HEMOGLOBIN,"120 h, time 5 day",21.93 pg
same,MEAN CORPUSCULAR HEMOGLOBIN CONCENTRATION,"120 h, time 5 day",36.67 G/DL
same,MEAN CORPUSCULAR VOLUME,"120 h, time 5 day",59.8 fL
same,MONOCYTE,"120 h, time 5 day",2%
same,NEUTROPHIL,"120 h, time 5 day",14.33%
same,NUCLEATED RED BLOOD CELLS,"120 h, time 5 day",0 /100WBC
same,PLATELET COUNT,"120 h, time 5 day",1167.33 x10E3/uL
same,ALANINE AMINOTRANSFERASE,"120 h, time 5 day",57 u/L
same,ALKALINE PHOSPHATASE,"120 h, time 5 day",325 u/L
same,ASPARTATE AMINOTRANSFERASE,"120 h, time 5 day",102.33 u/L
same,BLOOD UREA NITROGEN,"120 h, time 5 day",16.67 mg/dL
same,CARBON DIOXIDE,"120 h, time 5 day",28.67 mmol/L
same,CHLORIDE,"120 h, time 5 day",100.67 MEQ/L
same,CHOLESTEROL,"120 h, time 5 day",52.67 mg/dL
same,CREATININE,"120 h, time 5 day",0.23 mg/dL
same,GLUCOSE,"120 h, time 5 day",272.67 mg/dL
same,LACTATE DEHYDROGENASE,"120 h, time 5 day",312 u/L
same,LIPASE,"120 h, time 5 day",8.67 u/L
same,PHOSPHORUS,"120 h, time 5 day",14.97 mg/dL
same,POTASSIUM,"120 h, time 5 day",5.87 MEQ/L
same,SODIUM,"120 h, time 5 day",146.87 MEQ/L
same,TOTAL BILIRUBIN,"120 h, time 5 day",0.1 mg/dL
same,TOTAL PROTEIN,"120 h, time 5 day",5.9 G/DL
same,URIC ACID,"120 h, time 5 day",2.8 mg/dL
same,ABSOLUTE BASOPHIL,"[…], time 14 day",0 CELLS/uL
same,ABSOLUTE EOSINOPHIL,"[…], time 14 day",124.6 CELLS/uL
same,ABSOLUTE LYMPHOCYTE,"[…], time 14 day",16602.4 CELLS/uL
same,ABSOLUTE MONOCYTE,"[…], time 14 day",725.4 CELLS/uL
same,ABSOLUTE SEGMENTED NEUTROPHIL,"[…], time 14 day",1987.6 CELLS/uL
same,BASOPHIL,"[…], time 14 day",0%
same,EOSINOPHIL,"[…], time 14 day",0.6%
same,ERYTHROCYTE COUNT,"[…], time 14 day",6.66 x10E6/uL
same,HEMATOCRIT,"[…], time 14 day",38.76%
same,HEMOGLOBIN,"[…], time 14 day",14.18 G/DL
same,LEUKOCYTE COUNT,"[…], time 14 day",19.44 x10E3/uL
same,LYMPHOCYTE,"[…], time 14 day",85.6%
same,MEAN CORPUSCULAR HEMOGLOBIN,"[…], time 14 day",21.32 pg
same,MEAN CORPUSCULAR HEMOGLOBIN CONCENTRATION,"[…], time 14 day",36.58 G/DL
same,MEAN CORPUSCULAR VOLUME,"[…], time 14 day",58.24 fL
same,MONOCYTE,"[…], time 14 day",3.6%
same,NEUTROPHIL,"[…], time 14 day",10.2%
same,NUCLEATED RED BLOOD CELLS,"[…], time 14 day",0 /100WBC
same,PLATELET COUNT,"[…], time 14 day",1306.2 x10E3/uL
same,ALANINE AMINOTRANSFERASE,"[…], time 14 day",45.2 u/L
same,ALKALINE PHOSPHATASE,"[…], time 14 day",253.2 u/L
same,ASPARTATE AMINOTRANSFERASE,"[…], time 14 day",99 u/L
same,BLOOD UREA NITROGEN,"[…], time 14 day",13.6 mg/dL
same,CARBON DIOXIDE,"[…], time 14 day",31.8 mmol/L
same,CHLORIDE,"[…], time 14 day",101 MEQ/L
same,CHOLESTEROL,"[…], time 14 day",62.2 mg/dL
same,CREATININE,"[…], time 14 day",0.14 mg/dL
same,GLUCOSE,"[…], time 14 day",143.2 mg/dL
same,LACTATE DEHYDROGENASE,"[…], time 14 day",172.6 u/L
same,LIPASE,"[…], time 14 day",8.8 u/L
same,PHOSPHORUS,"[…], time 14 day",11.54 mg/dL
same,POTASSIUM,"[…], time 14 day",6.76 MEQ/L
same,SODIUM,"[…], time 14 day",145.5 MEQ/L
same,TOTAL BILIRUBIN,"[…], time 14 day",0.2 mg/dL
same,TOTAL PROTEIN,"[…], time 14 day",5.82 G/DL
same,URIC ACID,"[…], time 14 day",1.66 mg/dL
